Patent US12209140B2, “Therapeutics for the treatment of glaucoma” (Mayo Foundation for Medical Education and Research, priority 2014, dated 2025)
“Also recorded” adds a separate entry of the source.

How the values were obtained:
eyes = assay: activity in vivo in eyes
Excerpt: The enantiomer of CKLP1 is referred to as “ent-CKLP1”. CKLP1 can be synthesized from levcromakalim while ent-CKLP1 can be synthesized from (+)-cromakalim.

rabbits = assay: treatment of rabbits (intraocular pressure model); assay type: in vivo
Procedure: FIG. 4 is a graph showing the treatment of rabbits with CKL-P1 in PBS, optically active isomer. FIG. 3 is a graph showing the treatment with various forms of CKL. FIG. 4 is a graph showing the treatment of rabbits (n=5) with CKL-P1 in PBS, optically active isomer. FIG. 5 is a graph showing the treatment with ent-CKLP1(5 mM).

[1] = tested on: normotensive C57BL/6 mice; assay: intraocular pressure change in normotensive mice after treatment; assay type: in vivo, mouse; settings: for IOP lowering in the presence of Erk1/2 inhibitor U0126: mice (n=10), CKLP1+LFA+U0126; for combination treatment in mice with CKL/CKLP1 and prostaglandin analog LFA (FIG. 2 values, pressure change): alone or combined with latanoprost free acid, additive effects
Procedure: FIG. 1B is a graph of the change in C57BL/6 mice intraocular pressure following treatment with cromakalim in DMSO or CKLP1 in aqueous carrier. FIG. 2 is a graph of the combination treatment in mice with […]1 and prostaglandin showing additive effects. CKL: -12.77±2.38, […]1: -16.11±2.61, CKLP1+LFA: -26.06±2.98. FIG. 1A is a graph of pressure readings obtained from a pair of human anterior eye segments where one eye was treated with a KATP channel opener prodrug (CKLP1) while the fellow anterior segment was treated with vehicle alone. […] FIG. 1B is a graph of pressure change obtained in normotensive C57BL/6 mice following treatment with parent (CKL) and prodrug (CKLP1). […] FIG. 3 is a graph showing the treatment with various forms of CKL. FIG. 4 is a graph showing the treatment of rabbits (n=5) with CKL-P1 in PBS, optically active isomer. FIG. 5 is a graph showing the treatment with ent-CKLP1(5 mM).

rat cortical neurons = assay: H2O2 oxidative stress in rat cortical neurons, lactate dehydrogenase assayed; assay type: cell-based; settings: 75 μM H2O2 for 24 hours with and without CKLP1
Excerpt: The present invention also provides a CKLP1 composition used to treat neurons; a CKLP1 composition used for neuroprotection; a method of neuroprotection using a CKLP1 composition; a method of treating neurons using a CKLP1 composition; and methods and compositions for the treatment of ocular hypertension, blindness and loss of vision using a CKLP1 composition. The claimed CKLP1 composition provides neuroprotective properties. […] Therefore, CKLP1 and other prodrugs (as disclosed herein) may represent the first in class treatment for glaucoma that can treat the main risk factor (elevated intraocular pressure) and also the sight of damage (optic nerve).

[2] = tested on: human anterior eye segments; assay: human anterior segment perfusion organ culture (ex vivo human eye), pressure readings
Procedure: FIG. 1A is a graph of pressure readings obtained from a pair of human anterior eye segments where one eye was treated with a KATP channel opener prodrug (CKLP1) while the fellow anterior segment was treated with vehicle alone. […] FIG. 1B is a graph of pressure change obtained in normotensive C57BL/6 mice following treatment with parent (CKL) and prodrug (CKLP1).

Structure (SMILES) | activity in vivo in eyes (eyes) | IOP lowering in the presence of Erk1/2 inhibitor U0126 [1] | combination treatment in mice with CKL/CKLP1 and prostaglandin analog LFA (FIG. 2 values, pressure change) [1] | also measured
CC1(C)Oc2ccc(C#N)cc2[C@H](N2CCCC2=O)[C@H]1OP(=O)(O)O [ent-CKLP1] | active | – | – | –
CC1(C)Oc2ccc(C#N)cc2[C@@H](N2CCCC2=O)[C@@H]1OP(=O)(O)O [CKLP1] | active | not able to lower pressure | −16.11±2.61 | activity in rabbit model (rabbits): good activity; biological activity in normotensive mouse model ([1]; mouse): good activity; H2O2 oxidative stress (lactate dehydrogenase levels) (rat cortical neurons): inhibited H2O2 oxidative stress; pressure in human anterior segment perfusion organ culture ([2]; CKLP1 2 μM, fellow anterior segment treated with vehicle alone): reduction of pressure; also recorded: reduces pressure; activity in ex vivo human eyeball model ([2]; ex vivo human eyeball): good activity
O=C(O)CCC/C=C\C[C@@H]1[C@@H](CC[C@@H](O)CCc2ccccc2)[C@H](O)C[C@@H]1O [LFA, latanoprost free acid, reference compound] | – | can lower IOP | – | –
CC1(C)Oc2ccc(C#N)cc2C(N2CCCC2=O)C1O (centres unmarked) [CKL, cromakalim, reference compound] | – | – | −12.77±2.38 | –
